The source made the active and inactive calls. The calls are words filed in the database; no cut-off is given here.
Assays:
B16-F10 [1] = assay: Antitumor activity against mouse B16-F10 cells bearing C57BL/6 mouse assessed as reduction in tumor weight at 20 mg/kg, po administered once daily for consecutive 5 days relative to control; format: functional; design: scale not given: the % may be the effect or the level left; settings: time 5 day
B16-F10 [2] = assay: Antitumor activity against mouse B16-F10 cells bearing C57BL/6 mouse assessed as reduction in tumor weight at 40 mg/kg, po administered once daily for consecutive 5 days relative to control; format: functional; design: scale not given: the % may be the effect or the level left; settings: time 5 day
B16-F10 [3] = assay: Antitumor activity against mouse B16-F10 cells bearing C57BL/6 mouse assessed as reduction in tumor weight at 20 mg/kg, sc administered once daily for consecutive 5 days relative to control (reference value: 50.7%); format: functional; design: scale not given: the % may be the effect or the level left; settings: time 5 day
B16-F10 [4] = assay: Antitumor activity against mouse B16-F10 cells bearing C57BL/6 mouse assessed as reduction in tumor weight at 20 mg/kg, ip administered once daily for consecutive 5 days relative to control (reference value: 71.1%); format: functional; design: scale not given: the % may be the effect or the level left; settings: time 5 day
B16-F10 [5] = assay: Antitumor activity against mouse B16-F10 cells bearing C57BL/6 mouse assessed as reduction in tumor weight at 40 mg/kg, ip administered once daily for consecutive 5 days relative to control (reference value: 71.1%); format: functional; design: scale not given: the % may be the effect or the level left; settings: time 5 day
B16-F10 [6] = assay: Antitumor activity against mouse B16-F10 cells bearing C57BL/6 mouse assessed as reduction in mitotic figures at 40 mg/kg, ip administered once daily for consecutive 5 days by H and E staining microscopic analysis; format: functional, organism-based; settings: time 5.0 day
B16-F10 [7] = assay: Antitumor activity against mouse B16-F10 cells bearing C57BL/6 mouse assessed as reduction in tumor weight at 20 mg/kg, po administered once daily for consecutive 5 days in presence of cisplatin relative to control; format: functional; design: scale not given: the % may be the effect or the level left; settings: time 5 day
B16-F10 [8] = assay: Antitumor activity against mouse B16-F10 cells bearing C57BL/6 mouse assessed as reduction in number of mitotic figures at 20 mg/kg, po administered once daily for consecutive 5 days in presence of cisplatin by H and E staining microscopic analysis; format: functional, organism-based; settings: time 5.0 day
[9] = Toxicity in C57BL/6 mouse xenografted with mouse B16-F10 cells assessed as change in body weight at 20 to 40 mg/kg, po administered once daily for consecutive 5 days; format: organism-based; settings: in vivo, 120 h, dose 20-40 mg/kg, time 5 day
[10] = Toxicity in C57BL/6 mouse xenografted with mouse B16-F10 cells assessed as change in body weight at 20 to 40 mg/kg, ip administered once daily for consecutive 5 days; format: organism-based; settings: in vivo, 120 h, dose 20-40 mg/kg, time 5 day
[11] = Toxicity in C57BL/6 mouse xenografted with mouse B16-F10 cells assessed as change in body weight at 20 to 40 mg/kg, sc administered once daily for consecutive 5 days; format: organism-based; settings: in vivo, 120 h, dose 20-40 mg/kg, time 5 day
[12] = Toxicity in C57BL/6 mouse xenografted with mouse B16-F10 cells assessed as splenomegaly at 40 mg/kg, po administered once daily for consecutive 5 days; format: organism-based; settings: in vivo, 120 h, time 5 day
[13] = Toxicity in C57BL/6 mouse xenografted with mouse B16-F10 cells assessed as splenomegaly at 40 mg/kg, ip administered once daily for consecutive 5 days; format: organism-based; settings: in vivo, 120 h, time 5 day
[14] = Toxicity in C57BL/6 mouse xenografted with mouse B16-F10 cells assessed as splenomegaly at 40 mg/kg, sc administered once daily for consecutive 5 days; format: organism-based; settings: in vivo, 120 h, time 5 day
[15] = Toxicity in C57BL/6 mouse xenografted with mouse B16-F10 cells assessed as splenomegaly at 20 mg/kg, ip administered once daily for consecutive 5 days; format: organism-based; settings: in vivo, 120 h, time 5 day
[16] = Toxicity in C57BL/6 mouse xenografted with mouse B16-F10 cells assessed as body weight loss at 20 mg/kg, po administered once daily for consecutive 5 days in presence of cisplatin relative to control; format: organism-based; settings: in vivo, 120 h, time 5 day
[17] = Genotoxicity in C57BL/6 mouse xenografted with mouse B16-F10 cells assessed as micronucleated polychromatic erythrocytes frequency in bone marrow cells at 20 mg/kg, po for consecutive 5 days (reference value: 6.00 +/-1.00); format: toxicity, organism-based; settings: in vivo, 120 h, time 5 day
[18] = Genotoxicity in C57BL/6 mouse xenografted with mouse B16-F10 cells assessed as micronucleated polychromatic erythrocytes frequency in bone marrow cells at 40 mg/kg, po for consecutive 5 days (reference value: 6.00 +/-1.00); format: toxicity, organism-based; settings: in vivo, 120 h, time 5 day
[19] = Genotoxicity in C57BL/6 mouse xenografted with mouse B16-F10 cells assessed as micronucleated polychromatic erythrocytes frequency in bone marrow cells at 20 mg/kg, sc for consecutive 5 days (reference value: 10.00 +/-2.00); format: toxicity, organism-based; settings: in vivo, 120 h, time 5 day
[20] = Genotoxicity in C57BL/6 mouse xenografted with mouse B16-F10 cells assessed as micronucleated polychromatic erythrocytes frequency in bone marrow cells at 40 mg/kg, sc for consecutive 5 days (reference value: 10.00 +/-2.00); format: toxicity, organism-based; settings: in vivo, 120 h, time 5 day
[21] = Genotoxicity in C57BL/6 mouse xenografted with mouse B16-F10 cells assessed as micronucleated polychromatic erythrocytes frequency in bone marrow cells at 20 mg/kg, ip for consecutive 5 days (reference value: 8.00); format: toxicity, organism-based; settings: in vivo, 120 h, time 5 day
[22] = Genotoxicity in C57BL/6 mouse xenografted with mouse B16-F10 cells assessed as micronucleated polychromatic erythrocytes frequency in bone marrow cells at 40 mg/kg, ip for consecutive 5 days (reference value: 8.00); format: toxicity, organism-based; settings: in vivo, 120 h, time 5 day
[23] = Genotoxicity in C57BL/6 mouse xenografted with mouse B16-F10 cells assessed as ratio of polychromatic erythrocytes to total erythrocytes in bone marrow cells at 20 mg/kg, po for consecutive 5 days (reference value: 0.90 +/-0.04); format: toxicity, organism-based; settings: in vivo, 120 h, time 5 day
[24] = Genotoxicity in C57BL/6 mouse xenografted with mouse B16-F10 cells assessed as ratio of polychromatic erythrocytes to total erythrocytes in bone marrow cells at 40 mg/kg, po for consecutive 5 days (reference value: 0.90 +/-0.04); format: toxicity, organism-based; settings: in vivo, 120 h, time 5 day
[25] = Genotoxicity in C57BL/6 mouse xenografted with mouse B16-F10 cells assessed as ratio of polychromatic erythrocytes to total erythrocytes in bone marrow cells at 20 mg/kg, sc for consecutive 5 days (reference value: 0.60 +/-0.01); format: toxicity, organism-based; settings: in vivo, 120 h, time 5 day
[26] = Genotoxicity in C57BL/6 mouse xenografted with mouse B16-F10 cells assessed as ratio of polychromatic erythrocytes to total erythrocytes in bone marrow cells at 40 mg/kg, sc for consecutive 5 days (reference value: 0.60 +/-0.01); format: toxicity, organism-based; settings: in vivo, 120 h, time 5 day
[27] = Genotoxicity in C57BL/6 mouse xenografted with mouse B16-F10 cells assessed as ratio of polychromatic erythrocytes to total erythrocytes in bone marrow cells at 20 mg/kg, ip for consecutive 5 days (reference value: 0.91+/-0.01); format: toxicity, organism-based; settings: in vivo, 120 h, time 5 day
[28] = Genotoxicity in C57BL/6 mouse xenografted with mouse B16-F10 cells assessed as ratio of polychromatic erythrocytes to total erythrocytes in bone marrow cells at 40 mg/kg, ip for consecutive 5 days (reference value: 0.91+/-0.01); format: toxicity, organism-based; settings: in vivo, 120 h, time 5 day
[29] = Toxicity in C57BL/6 mouse xenografted with mouse B16-F10 cells assessed as change in heart weight at 20 to 40 mg/kg, po administered once daily for consecutive 5 days relative to control; format: organism-based; settings: in vivo, 120 h, dose 20-40 mg/kg, time 5 day
[30] = Toxicity in C57BL/6 mouse xenografted with mouse B16-F10 cells assessed as change in lung weight at 20 to 40 mg/kg, po administered once daily for consecutive 5 days relative to control; format: organism-based; settings: in vivo, 120 h, dose 20-40 mg/kg, time 5 day
[31] = Toxicity in C57BL/6 mouse xenografted with mouse B16-F10 cells assessed as change in kidney weight at 20 to 40 mg/kg, po administered once daily for consecutive 5 days relative to control; format: organism-based; settings: in vivo, 120 h, dose 20-40 mg/kg, time 5 day
[32] = Toxicity in C57BL/6 mouse xenografted with mouse B16-F10 cells assessed as reduction in spleen weight at 20 mg/kg, po administered once daily for consecutive 5 days; format: organism-based; settings: in vivo, 120 h, time 5 day
[33] = Toxicity in C57BL/6 mouse xenografted with mouse B16-F10 cells assessed as reduction in spleen weight at 20 mg/kg, sc administered once daily for consecutive 5 days; format: organism-based; settings: in vivo, 120 h, time 5 day
[34] = Toxicity in C57BL/6 mouse xenografted with mouse B16-F10 cells assessed as reduction in spleen weight at 20 mg/kg, ip administered once daily for consecutive 5 days; format: organism-based; settings: in vivo, 120 h, time 5 day
[35] = Toxicity in C57BL/6 mouse xenografted with mouse B16-F10 cells assessed as change in heart weight at 20 to 40 mg/kg, sc administered once daily for consecutive 5 days relative to control; format: organism-based; settings: in vivo, 120 h, dose 20-40 mg/kg, time 5 day
[36] = Toxicity in C57BL/6 mouse xenografted with mouse B16-F10 cells assessed as change in lung weight at 20 to 40 mg/kg, sc administered once daily for consecutive 5 days relative to control; format: organism-based; settings: in vivo, 120 h, dose 20-40 mg/kg, time 5 day
[37] = Toxicity in C57BL/6 mouse xenografted with mouse B16-F10 cells assessed as change in kidney weight at 20 to 40 mg/kg, sc administered once daily for consecutive 5 days relative to control; format: organism-based; settings: in vivo, 120 h, dose 20-40 mg/kg, time 5 day
[38] = Toxicity in C57BL/6 mouse xenografted with mouse B16-F10 cells assessed as change in heart weight at 20 to 40 mg/kg, ip administered once daily for consecutive 5 days relative to control; format: organism-based; settings: in vivo, 120 h, dose 20-40 mg/kg, time 5 day
[39] = Toxicity in C57BL/6 mouse xenografted with mouse B16-F10 cells assessed as change in lung weight at 20 to 40 mg/kg, ip administered once daily for consecutive 5 days relative to control; format: organism-based; settings: in vivo, 120 h, dose 20-40 mg/kg, time 5 day
[40] = Toxicity in C57BL/6 mouse xenografted with mouse B16-F10 cells assessed as change in kidney weight at 20 to 40 mg/kg, ip administered once daily for consecutive 5 days relative to control; format: organism-based; settings: in vivo, 120 h, dose 20-40 mg/kg, time 5 day

C=C[C@](C)(O)CC[C@H]1C(=C)CC[C@H]2C(C)(C)CCC[C@]12C
Activity (B16-F10 [1]): 62.4%
Activity (B16-F10 [2]): 9.3%
Activity (B16-F10 [3]): 38.8%
Activity (B16-F10 [4]): 48.5%
Activity (B16-F10 [5]): 64.9%
Activity (B16-F10 [6]): Active
Activity (B16-F10 [7]): 86.7%
Activity (B16-F10 [8]): Active
Activity [9]: Non-Toxic
Activity [10]: Non-Toxic
Activity [11]: Non-Toxic
Activity [12]: Toxic
Activity [13]: Toxic
Activity [14]: Toxic
Activity [15]: Toxic
Activity [16]: Toxic
Activity [17]: 8
Activity [18]: 6
Activity [19]: 6
Activity [20]: 7.33
Activity [21]: 5.67
Activity [22]: 4.33
Ratio [23]: 0.92
Ratio [24]: 0.9
Ratio [25]: 0.85
Ratio [26]: 0.85
Ratio [27]: 0.82
Ratio [28]: 0.83
Activity [29]: Non-Toxic
Activity [30]: Non-Toxic
Activity [31]: Non-Toxic
Activity [32]: Non-Toxic
Activity [33]: Non-Toxic
Activity [34]: Toxic
Activity [35]: Non-Toxic
Activity [36]: Non-Toxic
Activity [37]: Non-Toxic
Activity [38]: Non-Toxic
Activity [39]: Non-Toxic
Activity [40]: Non-Toxic

— ChEMBL document CHEMBL5143587, “Antitumor Effect of Manool in a Murine Melanoma Model” (J Nat Prod, 2022)
